Measurements as given in patent US7476673B2, “Disubstituted chalcone oximes as selective agonists of RARγ retinoid receptors” (Allergan, Inc., priority 2003, dated 2009).

Test system: RARγ
Assay: chimeric receptor transactivation assay, RARγ
Type: cell-based
Conditions: judged from Table 1 data, versus RARα and RARβ
Experimental: The compounds of the invention were tested in certain assays for activity as agonists of RAR and RXR retinoid receptors. Specifically, one such assay is a chimeric receptor transactivation assay which tests for agonist-like activity in the RARα, RARβ and RARγ receptor subtypes, and which is based on work published by Feigner P. L. and Holm M. (1989) Focus, 112 is described in detail in U.S. Pat. No. 5,455,265. The specification of U.S. Pat. No. 5,455,265 is hereby expressly incorporated by reference.
A holoreceptor transactivation assay and a ligand binding assay which measure the antagonist/agonist like activity of the compounds of the invention, or their ability to bind to the several retinoid receptor subtypes, respectively, are described in published PCT Application No. WO WO93/11755 (particularly on pages 30-33 and 37-41) published on Jun. 24, 1993, the specification of which is also incorporated herein by reference. A detailed experimental procedure for holoreceptor transactivations has been described by Heyman et al. Cell 68, 397-406, (1992); Allegretto et al. J. Biol. Chem. 268, 26625-26633, and Mangelsdorf et al. The Retinoids: Biology, Chemistry and Medicine, pp 319-349, Raven Press Ltd., New York, which are expressly incorporated herein by reference. The results obtained in this assay are expressed in EC50 numbers, as they are also in the chimeric receptor transactivation assay. The results of the ligand binding assay are expressed in Ki numbers. (See Cheng et al. Biochemical Pharmacology Vol. 22 pp 3099-3108, expressly incorporated herein by reference.)
Efficacy in a transactivation assay is expressed as a percentage of the maximum potency attained by the compound compared to a standard which, in this case, is the compound 4-[(1E)-2-(5,6,7,8-tetrahydro-5,5,8,8-tetramethyl-2-naphthalenyl)-1-propenyl]-benzoic acid. (TTNPB) This standard compound is described in PCT Publication WO 2002077169 A2.
Table 1 discloses the activity of certain exemplary compounds of the invention in the above-described chimeric RAR receptor transactivation and binding assays.

SMILES	selectivity to the RARγ receptors
Cc1cc2c(cc1C(/C=C/c1ccc(C(=O)O)cc1)=NO)C(C)(C)CCC2(C)C [Compound 9a, E-4-[3-Hydroxyimino-3-(3,5,5,8,8-pentamethyl-5.6,7,8-tetrahydro-naphthalen-2-yl)-propenyl]-benzoic acid]	less selective
Cc1cc2c(cc1C(/C=C\c1ccc(C(=O)O)cc1)=NO)C(C)(C)CCC2(C)C [Compound 9b, Z4-[3-hydroxyimino-3-(3,5,5,8,8-pentamethyl-5,6,7,8-tetrahydro-naphthalen-2-yl)-propenyl]-benzoic acid]	less selective
COc1cc2c(cc1C(/C=C/c1ccc(C(=O)O)cc1)=NO)C(C)(C)CCC2(C)C [Compound 13a, E-4-[3-Hydroxyimino-3-(3-methoxy-5,5,8,8-tetramethyl-5,6,7,8-tetrahydro-naphthalen-2-yl)-propenyl]-benzoic acid]	less selective
COc1cc2c(cc1C(/C=C\c1ccc(C(=O)O)cc1)=NO)C(C)(C)CCC2(C)C [Compound 13b, Z-4-[3-hydroxyimino-3-(3-methoxy-5,5,8,8-tetramethyl-5,6,7,8-tetrahydro-naphthalen-2-yl)-propenyl]-benzoic acid]	less selective
